By melting point is commonly meant the temperature of the solid-liquid transition. Compound `O=C(NCc1ccccc1)c1ccc([C@@H]2C[C@H]3C=C(c4c[nH]c(-c5ccc(F)cc5)c4-c4ccncc4)CCN3C2)cc1` [Example 55, 4-[(2S,8aS)-2-[4-(N-Benzylcarbamoyl)phenyl]-1,2,3,5,6,8a-hexahydroindolizin-7-yl]-2-(4-fluorophenyl)-3-(pyridin-4-yl)-1H-pyrrole] displayed a melting point of 173 to 175 °C. To `CC(C)NC(=O)c1ccc([C@@H]2C[C@H]3C=C(c4c[nH]c(-c5ccc(F)cc5)c4-c4ccncc4)CCN3C2)cc1` [Example 59, 2-(4-Fluorophenyl)-4-[(2S,8aS)-2-[4-(N-isopropylcarbamoyl)phenyl]-1,2,3,5,6,8a-hexahydroindolizin-7-yl]-3-(pyridin-4-yl)-1H-pyrrole] belongs 202 to 204 °C; to `CCNC(=O)c1ccc([C@@H]2C[C@H]3C=C(c4c[nH]c(-c5ccc(F)cc5)c4-c4ccncc4)CCN3C2)cc1` [Example 54, 4-[(2S,8aS)-2-[4-(N-Ethylcarbamoyl)phenyl]-1,2,3,5,6,8a-hexahydroindolizin-7-yl]-2-(4-fluorophenyl)-3-(pyridin-4-yl)-1H-pyrrole], 178 to 180 °C; to `O=C(NC1CC1)c1ccc([C@@H]2C[C@H]3C=C(c4c[nH]c(-c5ccc(F)cc5)c4-c4ccncc4)CCN3C2)cc1` [Example 56, 4-[(2S,8aS)-2-[4-(N-Cyclopropylcarbamoyl)phenyl]-1,2,3,5,6,8a-hexahydroindolizin-7-yl]-2-(4-fluorophenyl)-3-(pyridin-4-yl)-1H-pyrrole], 200 to 202 °C.

For `CNC(=O)c1ccc([C@@H]2C[C@H]3C=C(c4c[nH]c(-c5ccc(F)cc5)c4-c4ccncc4)CCN3C2)cc1` [Example 53, 2-(4-Fluorophenyl)-4-[(2S,8aS)-2-[4-(N-methylcarbamoyl)phenyl]-1,2,3,5,6,8a-hexahydroindolizin-7-yl]-3-(pyridin-4-yl)-1H-pyrrole], the melting point fell in the range of 171 to 173 °C. On to `COCCNC(=O)c1ccc([C@@H]2C[C@H]3C=C(c4c[nH]c(-c5ccc(F)cc5)c4-c4ccncc4)CCN3C2)cc1` [Example 61, 2-(4-Fluorophenyl)-4-[(2S,8aS)-2-[4-(N-(2-methoxyethyl)carbamoyl)phenyl]-1,2,3,5,6,8a-hexahydroindolizin-7-yl]-3-(pyridin-4-yl)-1H-pyrrole], for which the melting point was 166 to 168 °C. The value for `CCCNC(=O)c1ccc([C@@H]2C[C@H]3C=C(c4c[nH]c(-c5ccc(F)cc5)c4-c4ccncc4)CCN3C2)cc1` [Example 58, 2-(4-Fluorophenyl)-4-[(2S,8aS)-2-[4-(N-propylcarbamoyl)phenyl]-1,2,3,5,6,8a-hexahydroindolizin-7-yl]-3-(pyridin-4-yl)-1H-pyrrole] was 190 to 192 °C. Compound `O=C(NCCF)c1ccc([C@@H]2C[C@H]3C=C(c4c[nH]c(-c5ccc(F)cc5)c4-c4ccncc4)CCN3C2)cc1` [Example 57, 4-[(2S,8aS)-2-[4-[N-(2-Fluoroethyl)carbamoyl]phenyl]-1,2,3,5,6,8a-hexahydroindolizin-7-yl]-2-(4-fluorophenyl)-3-(pyridin-4-yl)-1H-pyrrole] had a melting point of 183 to 185 °C.

These data come from patent US20070049620A1, “Cyclic tertiary amine compound” (SANKYO COMPANY, LIMITED, priority 2003, published 2007).
